US11643405B2, “Compound for treatment or prevention of liver diseases” (JIANGSU ATOM BIOSCIENCE AND PHARMACEUTICAL CO., LTD., priority 2018, dated 2023)
Marks after values point to notes of the source that are not given here.

Tested on: zebrafish non-alcoholic fatty liver
Assay: Fat reduction or elimination effect on thioacetamide-induced zebrafish non-alcoholic fatty liver (Oil Red O staining)
Type: in vivo
Conditions: for The total optical density of liver fat: mean ± SE, n = 10; for inhibition at 100 µM / inhibition at 200 µM: Danio rerio, read-out: Inhibition rate of liver steatosis
Experimental: 40 mM stock solution of test compounds 4, 5, 6, 7, 46, 67, 78, 85, 92 and 101 were prepared with DMSO, and stored in a refrigerator at −20° C. The positive control compound S-adenosylmethionine (SAM) was purchased from Aladdin Reagent (Shanghai) Co., Ltd., with the batch number F1523051, which was prepared into a 50 mM stock solution with DMSO. The control compound silymarin was purchased from Shanghai Dibai Biotechnology Co., Ltd., with the batch number EE09, which was prepared into a 40 mM stock solution with DMSO. Thioacetamide was purchased from Sigma-Aldrich, with the batch number BCBV3031, which wasprepared into a 1 M stock solution with DMSO. Oil Red O was purchased from Sigma-Aldrich, with the batch number SLBP5248V. 4% paraformaldehyde was purchased from Dingguo Biotechnology Co., Ltd., with the batch number 773001800. Propylene glycol was purchased from Sinopharm Chemical Reagent Co., Ltd., with the batch number 20170615.
The melanin allele mutant translucent Albino line zebrafish was reproduced in natural paired mating. The fish age was 3 days after fertilization, with 30 fish per experimental group.
The above zebrafish were raised in fish farming water at 28° C. (water quality: 200 mg instant sea salt was added to 1 L of reverse osmosis water, conductivity was 480-510 μS/cm; pH was 6.9-7.2; hardness was 53.7-71.6 mg/L CaCOs), the experimental animal use license number was: SYXK (Zhejiang) 2012-0171. Feeding management met the requirements of international AAALAC certification.
Three days after fertilization, the normal melanin allele mutant translucent Albino strain of zebrafish was randomly selected and placed in a six well plate with 30 fish per well (i.e. each experimental group), and then thioacetamide with the final concentration of 7 mM was used to treat zebrafish for 72 hours to establish the non-alcoholic fatty liver model.
The zebrafish were transferred to a six-well plate, with 30 fish per well (i.e., each experimental group) randomly. Non-alcoholic fatty liver model in zebrafish were induced by thioacetamide. 40 mM test compounds 4, 5, 6, 7, 46, 67, 78, 85, 92 and 101 were quantitatively transferred to a six-well plate, and diluted with water to the corresponding concentration. Test compounds 4, 5, 6 and 7 were formulated into two dose groups with final concentration of 100 μM and 200 μM, respectively; test compound 46 was formulated into a dose group with final concentration of 200 μM; test compounds 67, 78, 85, 92 and 101 were formulated into dose groups with a final concentration of 100 μM; 50 mM positive control SAM was formulated with water to a dose group with final concentration of 50 μM, and a 40 mM positive control silymarin was formulated with water to two concentration dose groups with final concentration of 100 μM and 200 μM. A normal control group (zebrafish treated with fish farming water) and a model control group were set at the same time, and the total volume of each well was 3 mL. Except for the normal control group, the other experimental groups were treated with thioacetamide for 72 hours and stained with Oil Red O. After staining, 10 zebrafish were randomly selected from each experimental group and photographed under a dissecting microscope, NIS-Elements D 3.10 advanced image processing software was used to perform image analysis and collect data, the total optical density (S) of zebrafish liver fat was statistically analyzed, and for the inhibitory effect of each experimental group on liver steatosis of zebrafishwas evaluated by the following formula, the results of statistical analysis were expressed as mean±SE: Inhibition rate of liver steatosis (%)=[S(model control group)−S(test compound group)]/[S(model control group)−S(normal control group)]×100%
Statistical analysis was performed using analysis of variance and Dunnett's T-test, and p<0.05 indicated a significant difference. […]

Row | SMILES | Inhibition rate of liver steatosis (50 μM (SAM)) | The total optical density of liver fat (50 μM (SAM)) | Inhibition rate of liver steatosis (100 μM) | Therapeutic effect on non-alcoholic fatty liver of zebrafish (in words) (100 μM) | The total optical density of liver fat (100 μM) | Therapeutic effect on zebrafish non-alcoholic fatty liver (in words) (200 μM) | The total optical density of liver fat (200 μM) | inhibition at 100 µM (100 μM) | inhibition at 200 µM (200 μM)
1 | C[S+](CC[C@H](N)C(=O)[O-])C[C@H]1O[C@@H](n2cnc3c(N)ncnc32)[C@H](O)[C@@H]1O (stereo partly drawn) [S-adenosylmethionine, reference compound] | 89% | 18301 ± 783 Pixels | – | – | – | – | – | – | –
2 | COc1cc([C@H]2Oc3cc([C@H]4Oc5cc(O)cc(O)c5C(O)[C@@H]4O)ccc3O[C@@H]2CO)ccc1O (stereo partly drawn) [Compound 5, (2R,3S)-2-{(2R,3R)-3-(4-hydroxy-3-methoxyphenyl)-2-hydroxymethyl-2,3-dihydrobenzo[b][1,4]dioxan-6-yl}chroman-3,4,5,7-tetraol] | – | – | 85** % | significant therapeutic effects | 18496 ± 862 Pixels | significant therapeutic effect | 18452 ± 795 Pixels | 84% | 86%
3 | COc1cc([C@H]2Oc3cc([C@H]4Oc5cc(O)cc(O)c5C[C@@H]4O)ccc3O[C@@H]2CO)ccc1O [Compound 6, (2R,3S)-2-{(2R,3R)-3-(4-hydroxy-3-methoxyphenyl)-2-hydroxymethyl-2,3-dihydrobenzo[b][1,4]dioxan-6-yl}chroman-3,5,7-triol] | – | – | – | significant therapeutic effects | 19868 ± 556 Pixels | significant therapeutic effect | 18157 ± 572 Pixels | 58% | 92%
4 | COc1cc([C@H]2Oc3cc([C@H]4Oc5cc(O)cc(O)c5/C(=N/O)[C@@H]4O)ccc3O[C@@H]2CO)ccc1O [Compound 46, (2R,3S)-3,5,7-trihydroxy-2-{(2R,3R)-3-(4-hydroxy-3-methoxyphenyl)-2-hydroxymethyl-2,3-dihydrobenzo[b][1,4]dioxan-6-yl}chroman-4-one oxime] | – | – | – | – | – | significant therapeutic effect | 19767 ± 814 Pixels | – | 60%
5 | COc1cc(OC)c2c(c1)OC(c1cc(O)c3c(c1)OC(c1ccc(O)c(OC)c1)C(CO)O3)C(O)C2 (stereo not drawn) [Compound 78, 7-{(3-hydroxy-5,7-dimethoxychroman-2-yl)-2-(4-hydroxy-3-methoxyphenyl)-3-hydroxymethyl-2,3-dihydrobenzo[b][1,4]dioxane}-5-ol] | – | – | – | significant therapeutic effects | 19665 ± 1330 Pixels | – | – | 62% | –
6 | COc1cc(OC)c2c(c1)OC(c1cc(O)c3c(c1)OC(c1ccc(O)c(OC)c1)C(CO)O3)C(O)C2O (stereo not drawn) [Compound 92, 2-{8-hydroxy-3-(4-hydroxy-3-methoxyphenyl)-2-hydroxymethyl-2,3-dihydrobenzo[b][1,4]dioxan-6-yl}-5,7-dimethoxychroman-3,4-diol] | – | – | – | significant therapeutic effects | 17836 ± 639 Pixels | – | – | 98% | –
7 | COc1cc(C2Oc3cc(C4Oc5cc(F)cc(O)c5C(O)C4O)cc(O)c3OC2CO)ccc1O (stereo not drawn) [Compound 101, 7-fluoro-2-{8-hydroxy-3-(4-hydroxy-3-methoxyphenyl)-2-hydroxymethyl-2,3-dihydrobenzo[b][1,4]dioxan-6-yl}chroman-3,4,5-triol] | – | – | – | significant therapeutic effects | 18090 ± 837 Pixels | – | – | 93% | –
